{"source": "patent US11098083B2", "about": "“Peptide that regulates fat metabolism and method for regulating fat metabolism” (SHENZHEN INSTITUTES OF ADVANCED TECHNOLOGY, priority 2017, dated 2021)", "format_in_all_cases": "in vivo, C57BL/6 mice", "key": {"DIO-NAFLD mice": {"tested_on": "DIO-NAFLD mice", "assay": "i.p. injection of ISAP1 in DIO-NAFLD mice: epididymal fat pad", "from_the_text": "S110: a diet-induced obesity and nonalcoholic fatty liver disease (DIO-NAFLD) mouse model by HFD feeding may be established.\nThirty specific pathogen free (SPF) level healthy 6-week-old male C57BL/6 mice may be purchased from the Experimental Animal Center of Guangdong Province. A body mass of each mouse may be 18 g to 22 g. The mice may be divided into two groups, housed in a SPF-grade animal facility of SIAT. Six mice may be fed with ND (the ND contains 5% of fat; 53% of carbohydrate; 23% of protein, having total calories of […]) for 12 weeks to be a ND control group, and may be allowed to have food and water ad lib. The other mice may be fed with HFD (the HFD may be D12451, Research Diets, Inc.) for 12 weeks, and may be allowed to have food and water ad lib. Physiological indexes of the mice may be detected. […] In the present embodiment, an average body weight of the DIO-NAFLD mice may be more than 40 g. Comparison of average body weight of the mice of the established model with that of the mice in the ND control group is shown in FIG. 1. The arrow indicates a time point at which the HFD be started.\nS121: effect of i.p. injection of ISAP1 on epididymal fat pad may be studied.\nWhen the body weight of the each mouse fed with the HFD is more than 40 g, and when the blood glucose level of the each mouse is above 10 mMol, each DIO-NAFLD mouse may be treated with i.p. injection of ISAP1 for 6 consecutive weeks. The DIO-NAFLD mice may be divided into 4 groups, 6 mice in each group. ISAP1 may be dissolved in normal saline solution containing 0.01% of BSA. A dosage of 20 pmol/g of ISAP1 may be i.p. injected into each DIO-NAFLD mouse in group #1 once a day, and a dosage of 2 pmol/g of ISAP1 may be i.p. injected into each DIO-NAFLD mouse in group #2 once a day. OCN (mouse OCN protein) may be prepared and administered similarly as the ISAP1 at a dosage of 6 pmol/g to each mouse in group #3. The mice in group #4 may be treated with normal saline only as a HFD control group. After 6 weeks, the mice may be euthanized by application of 95% CO2, and epididymal fat pads of 4 mice selected from each group and an epididymal fat pad of a mouse from the ND control group may collected and weighed. Paraffin slices of each epididymal fat pad may be prepared, and an area of the adipocytes may be observed by microscopy.\nStatistical analysis may be performed to compare with the HFD control group, wherein *: P<0.05, **: P<0.01, and ***: P<0.001."}, "HFD mice [1]": {"tested_on": "HFD mice", "assay": "gavage of peptides in HFD mice for 7 weeks: body weight", "conditions": "gavage 2 pmol/g of body weight for 7 weeks, compared with HFD control group, FIG. 7A", "from_the_text": "Six-week-old male wild-type C57BL/6 mice may be divided into 6 groups, 6 mice in each group. Group #1 may be provided with ND, and groups #2 to #6 may be provided with HFD. Group #2 may be treated as a HFD control group. Groups #3 to #6 may be experimental groups, and mice ingroups #3 to #6 may be gavaged with OCN, ISAP1, ISAP2, and ISAP3 respectively at 2 pmol/g of body weight for 7 weeks. Body weight of each mouse may be monitored and measured once a week.\nSix-week-old male wild-type C57BL/6 mice may be divided into 6 groups, 6 in each group. Group #1 may be provided with ND to be a ND control group, and groups #2 to #6 may be provided with HFD. Group #2 may be treated as a HFD control group. Groups #3 to #6 may be treated as experimental groups and may be gavaged with OCN, ISAP1, ISAP2, and ISAP3 respectively at 2 pmol/g of body weight daily for 7 weeks. Body weight may be monitored and measured once a week.\nSix-week-old male wild-type C57BL/6 mice may be divided into 6 groups, 6 in each group. Group #1 may be provided with ND to be a ND control group, groups #2 to #6 may be provided with HFD. Group #2 may be treated as a HFD control group. Groups #3 to #6 may be treated as experimental groups, and may be gavaged with OCN, ISAP1, ISAP2, and ISAP3 respectively at 2 pmol/g of body weight daily for 7 weeks. A body weight of each mouse may be monitored and measured once a week."}, "HFD mice [2]": {"tested_on": "HFD mice", "assay": "gavage of peptides in HFD mice: triglyceride in feces, week 7", "conditions": "gavage 2 pmol/g, feces of week 7, compared with HFD control group, FIG. 7B", "protocol": "Feces of each mouse may be collected in week 7, baked at 60° C. for 3 days to ensure complete dryness. Then, 1 mg of the feces may be collected and soaked in 1 ml of a mixed solution consisting of chloroform and methanol in a ratio of 2:1. The soaked feces may then be disrupted with a tissue homogenizer and centrifuged to obtain a supernatant. The supernatant may be detected for triglyceride by the Roche blood biochemical analyzer. Experimental results are shown in FIG. 7B. **: P<0.01, ***: P<0.001.\n(§1) Feces of the mice may be collected in the 7th week of the experiment and baked at 60° C. for 3 days to ensure complete dryness. Then, 1 mg of the feces may be weighed and soaked in 1 ml of a mixed solution containing chloroform and methanol in a ratio of 2:1. The feces with the mixed solution may be disrupted by a tissue homogenizer and centrifuged to obtain a supernatant. The supernatant may be detected for triglyceride by the Roche blood biochemical analyzer.\nas §1, with “2:1.The” for “2:1. The”\nas §1, with “each mouse” for “the mice”, “experiment,” for “experiment”, “dryness.” for “dryness. Then,”, “in” for “with”"}}, "note": "Ends that are not written are not given here.", "data": [{"sequence": "YLGASVPSPDPLEPT [ISAP1]", "values": [{"measurement": "size of the epididymal fat pads", "setting": "DIO-NAFLD mice; daily i.p. injection 6 weeks (20 or 2 pmol/g), compared with HFD control group, FIG. 2A", "result": "significantly reduce the size"}, {"measurement": "weight (average mass) of the epididymal fat pad", "setting": "DIO-NAFLD mice; daily i.p. injection 6 weeks (20 or 2 pmol/g), compared with HFD control group, FIG. 2B", "result": "significantly reduce the weight"}, {"measurement": "sizes of adipocytes, H&E staining of epididymal fat pads", "setting": "DIO-NAFLD mice; daily i.p. injection 6 weeks, compared with HFD control group, FIG. 2C", "result": "significantly reduce sizes of adipocytes"}, {"measurement": "average surface areas of single adipocytes calculated from H&E stained slices", "setting": "DIO-NAFLD mice; daily i.p. injection 6 weeks, double-blind, FIG. 2D", "result": "significantly reduce the sizes of the adipocytes"}, {"measurement": "body weight", "setting": "HFD mice [1]", "result": "significant weight loss"}, {"measurement": "content (level) of triglyceride in the feces", "setting": "HFD mice [2]", "result": "significantly increased"}]}]}
